The record followed here is patent US7713963B2, “Acylated indanyl amines and their use as pharmaceuticals” (sanofi-aventis Deutschland GmbH, priority 2001, dated 2010).

Usually melting point stands for the temperature, or range, at which the solid turns liquid.

Data set [1] relates to eNOS promoter. The data set can be described thus: Activation of eNOS transcription (eNOS promoter-luciferase reporter gene assay). The data set is classed as cell-based, human. Particulars: Homo sapiens, 18 h, 18 h incubation; for maximal fold induction: maximum transcription induction ratio (luciferase with compound / solvent alone), read-out: TIR (max); for EC50: Endothelial cell, EC50 of transcription induction ratio, determined graphically, human endothelial cell line, read-out: EC-50. An outline of the steps:
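Human endothelial cell line stably expressing firefly luciferase under a 3.5 kB eNOS promoter fragment, treated 18 h with compounds (0.5% DMSO final). Luciferase induction relative to solvent gives transcription induction ratio; EC50 read graphically from ratio versus concentration.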
In general terms: In a reporter assay the amount or activity of a reporter protein is the signal.

In data set [2] the test system is ApoE deficient mice. The data set can be described thus: Inhibition of neointima formation and atherogenesis (femoral artery cuff) in ApoE deficient mice. The data set is classed as in vivo. Particulars: 10 mg/kg/d in chow, 3 days before to 14 days after cuff surgery, versus placebo. From the text:
(§1) Animals and Treatment (Experiments A-C)
(§2) ApoE and eNOS deficient mice (C57BL/6J background, Jackson Laboratory, Bar Harbor, Me.) were used. All animals were 10-12 weeks of age and weighed 22 to 28 g. Three days before surgery mice were divided into 4 groups (apoE control, n=10-12; apoE with test compounds, n=10-12; eNOS control, n=10-12; eNOS with test compounds, n=10-12) and received either a standard rodent chow (containing 4% fat and 0.001% cholesterol; in the following designated as placebo group) or a standard rodent chow+test compound (10 or 30 mg/kg/d p.o.).
B Inhibition of Neointima Formation and Atherogenesis (Femoral Artery Cuff)
After 3 day treatment of ApoE deficient mice with the respective compound, (10 mg/kg/d pressed in chow), animals were anesthetized with an intraperitoneal injection of pentobarbital (60 mg/kg) followed by an intramuscular injection of xylazin (2 mg/kg) and a cuff was placed around the femoral artery as described in Moroi et al. (J. Clin. Invest. 101: 1225-32, 1998). Briefly, the left femoral artery was dissected. […] The aorta were taken for determination of vascular eNOS expressions by quantitative western blotting. […] For each cross section the area of the lumen, the neointima and the media were determined. […] The ratio between the area of the neointima and the area of the media was expressed as the neointima/media ratio.

Data set [3] concerns vascular eNOS expression. The data set can be described thus: Vascular eNOS expression (aorta, quantitative western blotting) in femoral artery cuff model. Type of data set: in vivo. Particulars: ApoE deficient mice, 10 mg/kg/d, versus placebo. As for the experimental part:
After 3 day treatment of ApoE deficient mice with the respective compound, (10 mg/kg/d pressed in chow), animals were anesthetized with an intraperitoneal injection of pentobarbital (60 mg/kg) followed by an intramuscular injection of xylazin (2 mg/kg) and a cuff was placed around the femoral artery as described in Moroi et al. (J. Clin. Invest. 101: 1225-32, 1998). Briefly, the left femoral artery was dissected. A non-occlusive 2.0 mm polyethylene cuff made of PE-50 tubing (inner diameter 0.56 mm, outer diameter 0.965 mm, Becton Dickinson, Mountain View, Calif.) was placed around the artery and tied in place with two 7-0 sutures. The right femoral artery was isolated from the surrounding tissues but a cuff was not placed. Treatment with the respective compound was continued for 14 days after surgery. Then the animals were sacrificed. The aorta were taken for determination of vascular eNOS expressions by quantitative western blotting. Both femoral arteries were harvested, fixed in formalin and embedded in paraffin. 20 cross sections (10 μm) were cut from the cuffed portion of the left femoral artery and from the corresponding segment of the right artery. […] For each cross section the area of the lumen, the neointima and the media were determined. […] The ratio between the area of the neointima and the area of the media was expressed as the neointima/media ratio.

In data set [4] the test system is ApoE deficient mice. The data set can be described thus: Anti-hypertensive effect in ApoE knockout mice (tail-cuff blood pressure). Type of data set: in vivo. Particulars: 30 mg/kg/d, 4 months treatment, placebo 115±2 mmHg, p<0.05.
Excerpt: as §1, §2
A Anti-Hypertensive Effect in ApoE Knockout Mice
(§3) Blood-pressure was determined in conscious mice using a computerized tail-cuff system (Visitech Systems, Apex, Nc). After treatment of ApoE deficient mice and eNOS deficient mice with the test compounds the blood pressure was compared to the results obtained with a placebo treatment.

Data set [5] deals with ApoE deficient mice. The data set can be described thus: Improvement of coronary function in diseased ApoE deficient mice (isolated working heart). Type of data set: in vivo. Particulars: isolated hearts of ApoE deficient mice, 30 mg/kg/d p.o. for 8 weeks. From the text: D Improvement of Coronary Function in Diseased ApoE Deficient Mice
Old Male wild-type C57BL/6J mice (Charles River Wiga GmbH, Sulzfeld), and apoE deficient mice (C57BL/6J background, Jackson Laboratory, Bar Harbor, Me.) 6 month of age and weighing 28 to 36 g were used in the experiments. Mice were divided into 3 groups (C57BL/6, n=8; apoE control, n=8; apoE with respective compound, n=8) and received for 8 weeks either a standard rodent chow (containing 4% fat and 0.001% cholesterol) or a standard rodent chow+respective compound (30 mg/kg/d p.o.).
Mice were anesthetized with sodium pentobarbitone (100 mg/kg i.p.), and the hearts were rapidly excised and placed into ice-cold perfusion buffer. The aorta was cannulated and connected to a perfusion apparatus (HUGO SACHS ELECTRONICS, Freiburg, Germany) which was started immediately at a constant perfusion pressure of 60 mm Hg. Hearts were perfused in a retrograde fashion with modified Krebs bicarbonate buffer, equilibrated with 95% O2 and 5% CO2 and maintained at 37.5° C.
A beveled small tube (PE 50) was passed through a pulmonary vein into the left ventricle and pulled through the ventricular wall, anchored in the apex by a fluted end, and connected to a tip-micromanometer (Millar 1.4 French). The left atrium was cannulated through the same pulmonary vein and the heart switched to the working mode with a constant preload pressure of 10 mm Hg and an afterload pressure of 60 mm Hg. Aortic outflow and atrial inflow were continuously measured using ultrasonic flow probes (HSE/Transonic Systems Inc.). Coronary flow was calculated as the difference between atrial flow and aortic flow. All hemodynamic data were digitized at a sampling rate of 1000 Hz and recorded with a PC using specialized software (HEM, Notocord).
Hearts were allowed to stabilize for 30 min. All functional hemodynamic data were measured during steady state, and during volume- and pressure loading.
Left ventricular function curves were constructed by varying pre-load pressure. […]

Data set [6] has as its system vascular eNOS expression. The data set can be described thus: Vascular eNOS expression (femoral arteries) after chronic treatment. Type of data set: in vivo. Particulars: ApoE deficient mice, 16 weeks treatment. How it is done: ApoE deficient mice were treated for 16 weeks with the respective compound pressed in chow and finally sacrificed. Aortas were removed from each mouse, fixed in formalin and embedded in paraffin. Plaque formation was measured via lipid lesion formation in the aortas (from aortic arch to diaphragm) and was analyzed by oil red O staining. For quantifying the effect of the respective compound on vascular eNOS expression the femoral arteries were used in this experiment.

Data set [7] concerns eNOS deficient mice. The data set can be described thus: Blood pressure in eNOS deficient mice (tail-cuff). Particulars: similar dosing, 4 weeks treatment. Type of data set: in vivo.
Excerpt: as §1, §2, §3

On to `COc1cc2c(cc1OC)CC(NC(=O)c1ccc(F)cc1)C2` [Compound 3, 4-FLUORO-N-(5,6-DIMETHOXY-INDAN-2-YL)-BENZAMIDE], for which the melting point is 160 °C.

For the molecule `CC(O)c1ccc2c(c1)CC(NC(=O)c1ccc(F)cc1)C2` (stereo not drawn) [Compound 402, 4-FLUORO-N-[5-(1-HYDROXY-ETHYL)-INDAN-2-YL]-BENZAMIDE], the melting point stood at 135 °C.

The molecule `O=C(NC1Cc2ccccc2C1)c1ccc2c(c1)OC(F)(F)O2` [Compound 66, 2,2-DIFLUORO-BENZO[1,3]DIOXOL-5-CARBOXYLIC ACID INDAN-2-YLAMIDE] came in with a melting point of 147.5 °C. For the same molecule, in data set [1], the maximal fold induction came to 2.7 and the EC50 was determined as 0.14 µM.

In turn, `O=C(NC1Cc2cccc(-c3ccc(F)cc3)c2C1)c1ccc(F)cc1` (stereo not drawn) [Compound 398B, 4-FLUORO-N-[4-(4-FLUOROPHENYL)-INDAN-2-YL]-BENZAMIDE] yielded a melting point of 157 °C. In data set [1], the maximal fold induction stood at 3.46 and the EC50 was determined as 30 µM.

As to `O=C(NC1Cc2ccc([N+](=O)[O-])cc2C1)c1ccc(F)cc1` (stereo not drawn) [Compound 389, 4-FLUORO-N-(5-NITRO-INDAN-2-YL)-BENZAMIDE], the melting point came out at 167 °C.

In the case of `O=C(NC1Cc2ccccc2C1)c1ccc(F)cc1` [Compound 21, 4-FLUORO-N-(INDAN-2-YL)-BENZAMIDE], in data set [2], the “reduction of neo-intima formation (factor)” value worked out at 2. Besides, the “vascular eNOS expression enhanced by a factor” value in data set [3] is reported as 2.1. Besides, the blood pressure in data set [4] was 92±5 mmHg. Further, the “pre-load dependent coronary flow” value in data set [5] is reported as “improvement”. The “incidence of ventricular arrhythmias” value in data set [5] (indicator for anti-ischemic efficacy) was “reduction”. Further, the coronary flow in data set [5] (untreated ApoE 3.6, wildtype 4.95 ml/min) came out at 5 mL/min. Besides, in data set [1], the maximal fold induction was determined as 4.1 and the EC50 was 0.8 µM. Moreover, in data set [6], the “vascular eNOS expression up-regulation” value is given as 1.75 fold. The blood pressure reduction result in data set [7] was “No blood pressure reduction”.

For `O=C(NC1Cc2ccccc2C1)c1ccc(OCc2ccccc2)cc1` [Compound 40, 4-BENZYLOXY-N-INDAN-2-YL-BENZAMIDE], the melting point amounted to 158.5 °C.

Molecule `O=C(NC1Cc2ccc(-c3ccc(F)cc3)cc2C1)c1ccc(F)cc1` (stereo not drawn) [Compound 398A, 4-FLUORO-N-[5-(4-FLUOROPHENYL)-INDAN-2-YL]-BENZAMIDE] returned a melting point of 193 °C.

The molecule `O=C(NC1Cc2ccc(O)cc2C1)c1ccc(F)cc1` (stereo not drawn) [Compound 404, 4-FLUORO-N-(5-HYDROXY-INDAN-2-YL)-BENZAMIDE] had a melting point of 199 °C. In data set [1], the maximal fold induction came out at 3.5 and the EC50 is 12 µM.

In turn, `CC(=O)c1ccc2c(c1)CC(NC(=O)c1ccc(F)cc1)C2` (stereo not drawn) [Compound 399, N-(5-ACETYL-INDAN-2-YL)-4-FLUORO-BENZAMIDE] returned a melting point of 148 °C.

Turning to `O=C(C=Cc1cccc2c1CC(NC(=O)c1ccc(F)cc1)C2)Nc1ccc(Cl)cc1` (stereo not drawn) [Compound 413, N-{4-[2-(4-CHLORO-PHENYLCARBAMOYL)-VINYL]-INDAN-2-YL}-4-FLUORO-BENZAMIDE], in data set [1], the maximal fold induction was 2.5 and the EC50 came to 8.5 µM.

In the case of `O=C(NC1Cc2ccccc2C1)c1ccc(Br)cc1` [Compound 289, 4-BROMO-N-INDAN-2-YL-BENZAMIDE], in data set [1], the maximal fold induction came out at 2.6 and the EC50 is 0.142 µM.

Take `Cc1cc(C(=O)NC2Cc3ccccc3C2)ccc1Cl` [Compound 27, 4-CHLORO-3-METHYL-N-INDAN-2-YL-BENZAMIDE]: in data set [1], the maximal fold induction was 3.6 and the EC50 amounted to 0.2 µM.

With `O=C(NC1Cc2ccccc2C1)c1ccc(Br)cc1Cl` [Compound 317, 4-BROMO-2-CHLORO-N-INDAN-2-YL-BENZAMIDE], in data set [1], the maximal fold induction came out at 2.9 and the EC50 came to 0.197 µM.

As to `CCOc1cccc(C(=O)NC2Cc3ccccc3C2)c1` [Compound 306, 3-ETHOXY-N-INDAN-2-YL-BENZAMIDE], in data set [1], the maximal fold induction amounted to 2.7 and the EC50 is 0.263 µM.

On to `Cc1ccc(C(=O)NC2Cc3ccccc3C2)cc1C` [Compound 29, 3,4-DIMETHYL-N-INDAN-2-YL-BENZAMIDE], for which, in data set [1], the maximal fold induction was determined as 3.8 and the EC50 was 0.8 µM.

Turning to `O=C(NC1Cc2ccccc2C1)c1cccc(NC(=O)C2CC2)c1` [Compound 376, 3-(CYCLOPROPANECARBONYL-AMINO)-N-INDAN-2-YL-BENZAMIDE], in data set [1], the maximal fold induction came out at 2.4 and the EC50 was 5.3 µM.

As for `Cc1ccc2c(Cl)c(C(=O)NC3Cc4ccccc4C3)sc2c1` [Compound 332, 3-CHLORO-6-METHYL-BENZO[B]THIOPHENE-2-CARBOXYLIC ACID INDAN-2-YLAMIDE], in data set [1], the maximal fold induction is 2 and the EC50 amounted to 4 µM.

As for `Cc1c(C(=O)NC2Cc3ccccc3C2)cccc1C(F)(F)F` [Compound 361, N-INDAN-2-YL-2-METHYL-3-TRIFLUOROMETHYL-BENZAMIDE], in data set [1], the maximal fold induction turned out to be 2.5 and the EC50 came to 21 µM.

On to `O=C(NC1Cc2cccc(Br)c2C1)c1ccc(F)cc1` (single isomer, unassigned) [Compound 396A, N-(4-BROMO-INDAN-2-YL)-4-FLUORO-BENZAMIDE], for which, in data set [1], the maximal fold induction is 3.55 and the EC50 was 0.6 µM.
